Experimental data from patent US20260297080A1, “BICYCLIC COMPOUNDS AS CDK INHIBITORS” (BeOne Medicines I GmbH, priority 2022, published 2026).

Columns and labels:
CDK1/Cyclin B1 = CDK1/Cyclin B1 (Homo sapiens, UniProt P06493); test: CDK1/Cyclin B1 Biochemical Assay (TR-FRET), 0.015 mM ATP; conditions: 0.15 μM Rb (Ser780)-biotin substrate, pH7.0, 60 min preincubation, 120 min reaction, room temperature
Procedure: (§1) CDK2/Cyclin E1 and CDK1/Cyclin B1 Biochemical Assays
(§2) Compounds disclosed herein were tested for inhibition of CDK2/Cyclin E1 or CDK1/Cyclin B1 kinase in an assay based on the time-resolved fluorescence-resonance energy transfer (TR-FRET) methodology. The assay was carried out in 384-well low volume black plates in a reaction mixture containing CDK2/Cyclin E1 or CDK1/Cyclin B1, 0.060 mM ATP for CDK2/Cyclin E1 or 0.015 mM ATP for CDK1/Cyclin B1, 0.15 μM Rb (Ser780)-biotin substrate and 0-10 μM compound in buffer containing 50 mM HEPES pH7.0, 0.02% NaN3, 0.01% BSA, 0.1 mM Orthovanadate, 50 mM MgCl2, 1 mM DTT and 0.005% Tween-20. The kinase was incubated with compound for 60 minutes at room temperature and the reaction was initiated by the addition of ATP and Rb (Ser780)-biotin substrate. After reaction at room temperature for 120 minutes, an equal volume of stop/detection solution was added according to the manufacture's instruction (Cisbio Bioassays). The stop/detection solution contained Streptavidin-XL665 and Anti-pRb (Ser780) mAb-Eu Cryptate in Detection buffer (Cisbio Bioassays). Plates were incubated at room temperature for 60 minutes, and the TR-FRET signals (ex337 nm, em665 nm/620 nm) were recorded on a PHERAstar FSX plate reader (BMG Labtech). The inhibition percentage of CDK2/Cyclin E1 or CDK1/Cyclin B1 kinase activity in presence of increasing concentrations of compounds was calculated based on the ratio of fluorescence at 665 nm to that at 620 nm. The IC50 for each compound was derived from fitting the data to the four-parameter logistic equation by Dotmatics.

CDK2/Cyclin E1 = CDK2/Cyclin E1 (Homo sapiens, UniProt P24941); test: CDK2/Cyclin E1 Biochemical Assay (TR-FRET), 0.060 mM ATP; conditions: 0.15 μM Rb (Ser780)-biotin substrate, pH7.0, 60 min preincubation, 120 min reaction, room temperature
Procedure: as §1, §2

Chain of CDK1/Cyclin B1 (P06493 whole entry): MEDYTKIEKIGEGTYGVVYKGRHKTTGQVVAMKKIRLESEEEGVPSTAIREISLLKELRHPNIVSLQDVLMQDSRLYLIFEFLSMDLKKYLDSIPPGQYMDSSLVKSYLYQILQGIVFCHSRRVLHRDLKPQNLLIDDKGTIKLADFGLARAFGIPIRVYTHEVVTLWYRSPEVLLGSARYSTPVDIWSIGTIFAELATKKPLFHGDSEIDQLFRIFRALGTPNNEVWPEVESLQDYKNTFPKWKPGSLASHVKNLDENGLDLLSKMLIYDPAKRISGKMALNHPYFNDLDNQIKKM
Chain of CDK1/Cyclin B1 (P14635 whole entry partner): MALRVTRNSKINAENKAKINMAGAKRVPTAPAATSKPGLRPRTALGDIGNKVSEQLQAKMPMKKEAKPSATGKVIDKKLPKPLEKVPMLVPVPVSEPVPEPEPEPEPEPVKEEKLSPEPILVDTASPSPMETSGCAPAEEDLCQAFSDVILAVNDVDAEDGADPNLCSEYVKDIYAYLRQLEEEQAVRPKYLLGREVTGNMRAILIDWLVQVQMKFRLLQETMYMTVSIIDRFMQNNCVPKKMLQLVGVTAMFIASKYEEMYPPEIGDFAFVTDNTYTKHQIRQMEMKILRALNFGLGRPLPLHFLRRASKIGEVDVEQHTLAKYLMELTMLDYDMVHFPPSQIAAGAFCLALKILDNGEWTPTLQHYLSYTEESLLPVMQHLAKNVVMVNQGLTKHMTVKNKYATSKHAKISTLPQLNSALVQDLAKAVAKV

Row | Compound | IC50 (CDK1/Cyclin B1) [µM] | IC50 (CDK2/Cyclin E1) [µM]
1 | CCCNC(=O)O[C@H]1CC[C@@H](c2cc(Nc3ccc4c(c3F)C(C)NS4(=O)=O)n[nH]2)C1 (single isomer, unassigned) [Example 53b, cis-3-(3-((4-fluoro-3-methyl-1,1-dioxido-2,3-dihydrobenzo[d]isothiazol-5-yl)amino)-1H-pyrazol-5-yl)cyclopentyl propylcarbamate] | 0.092 | 0.0038
2 | CC1(NC(=O)O[C@H]2CC[C@@H](c3cc(Nc4ccc5c(c4F)CNS5(=O)=O)n[nH]3)C2)CCOC1 (mixture of isomers) [Example 162, cis-3-(3-((4-fluoro-1,1-dioxido-2,3-dihydrobenzo[d]isothiazol-5-yl)amino)-1H-pyrazol-5-yl)cyclopentyl(3-methyltetrahydrofuran-3-yl)carbamate] | 0.163 | 0.0024
3 | CC(C)NC(=O)O[C@H]1CC[C@@H](c2cc(Nc3ccc4c(c3F)CN(C3CCN(Cc5ccccc5)C3)S4(=O)=O)n[nH]2)C1 (relative stereo) [Example 87, cis-3-(3-((2-(1-benzylpyrrolidin-3-yl)-4-fluoro-1,1-dioxido-2,3-dihydrobenzo[d]isothiazol-5-yl)amino)-1H-pyrazol-5-yl)cyclopentyl isopropylcarbamate] | 1.09 | 0.029
4 | O=C(NC1CCC1)O[C@H]1CC[C@@H](c2cc(Nc3ccc4c(c3F)CNS4(=O)=O)n[nH]2)C1 (relative stereo) [Example 157, cis-3-(3-((4-fluoro-1,1-dioxido-2,3-dihydrobenzo[d]isothiazol-5-yl)amino)-1H-pyrazol-5-yl)cyclopentyl cyclobutylcarbamate] | 0.24 | 0.015
5 | CC(C)NC(=O)O[C@H]1CC[C@@H](c2cc(Nc3ccc4c(c3F)CS(=O)(=O)N4C)n[nH]2)C1 (single isomer, unassigned) [Example 255b, cis-3-(3-((4-fluoro-1-methyl-2,2-dioxido-1,3-dihydrobenzo[c]isothiazol-5-yl)amino)-1H-pyrazol-5-yl)cyclopentyl isopropylcarbamate] | 0.149 | 0.0052
6 | CC1(NC(=O)O[C@H]2CC[C@@H](c3cc(Nc4ccc5c(c4F)CS(=O)(=O)N5)n[nH]3)C2)CCOCC1 (relative stereo) [Example 402, cis-3-(3-((4-fluoro-2,2-dioxido-1,3-dihydrobenzo[c]isothiazol-5-yl)amino)-1H-pyrazol-5-yl)cyclopentyl(4-methyltetrahydro-2H-pyran-4-yl)carbamate] | 0.101 | 0.0051
7 | CNC(=O)O[C@H]1CC[C@@H](c2cc(Nc3ccc4c(c3)CS(=O)(=O)N4C)n[nH]2)C1 (relative stereo) [Example 225, cis-3-(3-((1-methyl-2,2-dioxido-1,3-dihydrobenzo[c]isothiazol-5-yl)amino)-1H-pyrazol-5-yl)cyclopentyl methylcarbamate] | 0.789 | 0.087
8 | CCCNC(=O)O[C@H]1CC[C@@H](c2cc(Nc3ccc4c(c3F)CN(C3COC3)S4(=O)=O)n[nH]2)C1 (relative stereo) [Example 136, cis-3-(3-((4-fluoro-2-(oxetan-3-yl)-1,1-dioxido-2,3-dihydrobenzo[d]isothiazol-5-yl)amino)-1H-pyrazol-5-yl)cyclopentyl propylcarbamate] | 0.457 | 0.022
9 | CC(C)NC(=O)O[C@H]1CC[C@@H](c2cc(Nc3ccc4c(c3F)CN(C3CCN(S(C)(=O)=O)C3)S4(=O)=O)n[nH]2)C1 (relative stereo) [Example 85, cis-3-(3-((4-fluoro-2-(1-(methylsulfonyl)pyrrolidin-3-yl)-1,1-dioxido-2,3-dihydrobenzo[d]isothiazol-5-yl)amino)-1H-pyrazol-5-yl)cyclopentyl isopropylcarbamate] | 0.47 | 0.0046
10 | O=C(NC1CCC(O)CC1)O[C@H]1CC[C@@H](c2cc(Nc3ccc4c(c3F)CNS4(=O)=O)n[nH]2)C1 (single isomer, unassigned) [Example 142, cis-3-(3-((4-fluoro-1,1-dioxido-2,3-dihydrobenzo[d]isothiazol-5-yl)amino)-1H-pyrazol-5-yl)cyclopentyl(4-hydroxycyclohexyl)carbamate] | 0.046 | 0.0012
11 | CC(C)NC(=O)O[C@H]1CC[C@@H](c2cc(Nc3ccc4c(c3)S(=O)(=O)NC4C)[nH]n2)C1 (single isomer, unassigned) [Example 5d, cis-3-(5-((3-methyl-1,1-dioxido-2,3-dihydrobenzo[d]isothiazol-6-yl)amino)-1H-pyrazol-3-yl)cyclopentyl isopropylcarbamate] | 0.045 | 0.0029
12 | CC[C@H](C)NC(=O)O[C@H]1CC[C@@H](c2cc(Nc3ccc4c(c3F)C(C)NS4(=O)=O)n[nH]2)C1 (single isomer, unassigned) [Example 54c] | 0.04 | 0.0003
13 | COc1c(Nc2cc([C@@H]3CC[C@H](OC(=O)NC(C)C)C3)[nH]n2)ccc2c1S(=O)(=O)NC2(C)C (relative stereo) [Example 181, cis-3-(3-((7-methoxy-3,3-dimethyl-1,1-dioxido-2,3-dihydrobenzo[d]isothiazol-6-yl)amino)-1H-pyrazol-5-yl)cyclopentyl isopropylcarbamate] | 1.25 | 0.058
14 | CN1Cc2c(ccc(Nc3cc([C@@H]4CC[C@H](OC(=O)NC5COC5)C4)[nH]n3)c2F)S1(=O)=O (relative stereo) [Example 336, cis-3-(3-((4-fluoro-2-methyl-1,1-dioxido-2,3-dihydrobenzo[d]isothiazol-5-yl)amino)-1H-pyrazol-5-yl)cyclopentyl oxetan-3-ylcarbamate] | 1.47 | 0.097
15 | CC(C)NC(=O)O[C@H]1CC[C@@H](c2cc(Nc3cc4c(cc3F)S(=O)(=O)N(C(C)C)C4)n[nH]2)C1 (relative stereo) [Example 49, cis-3-(3-((6-fluoro-2-isopropyl-1,1-dioxido-2,3-dihydrobenzo[d]isothiazol-5-yl)amino)-1H-pyrazol-5-yl)cyclopentyl isopropylcarbamate] | > 10 | 0.758
16 | CCCNC(=O)O[C@H]1CC[C@@H](c2cc(Nc3ccc4c(c3)NS(=O)(=O)C4)n[nH]2)C1 (relative stereo) [Example 305, cis-3-(3-((2,2-dioxido-1,3-dihydrobenzo[c]isothiazol-6-yl)amino)-1H-pyrazol-5-yl)cyclopentyl propylcarbamate] | 0.058 | 0.0065
17 | CC1(NC(=O)O[C@H]2CC[C@@H](c3cc(Nc4ccc5c(c4F)CS(=O)(=O)N5CCO)n[nH]3)C2)CC1 (relative stereo) [Example 274, cis-3-(3-((4-fluoro-1-(2-hydroxyethyl)-2,2-dioxido-1,3-dihydrobenzo[c]isothiazol-5-yl)amino)-1H-pyrazol-5-yl)cyclopentyl(1-methylcyclopropyl)carbamate] | 0.022 | 0.001
18 | CC(C)NC(=O)O[C@H]1CC[C@@H](c2cc(Nc3ccc4c(c3F)CN(C3CCN(S(C)(=O)=O)CC3)S4(=O)=O)n[nH]2)C1 (relative stereo) [Example 77, cis-3-(3-((4-fluoro-2-(1-(methylsulfonyl)piperidin-4-yl)-1,1-dioxido-2,3-dihydrobenzo[d]isothiazol-5-yl)amino)-1H-pyrazol-5-yl)cyclopentyl isopropylcarbamate] | 0.621 | 0.01
19 | CC(C)(C)NC(=O)O[C@H]1CC[C@@H](c2cc(Nc3ccc4c(c3)CS(=O)(=O)N4)n[nH]2)C1 [Example 403b] | 0.0073 | 0.0011
20 | CN1c2ccc(Nc3cc([C@@H]4CC[C@H](OC(=O)NC5(C)CCOC5)C4)[nH]n3)cc2CS1(=O)=O (relative stereo) [Example 239, cis-3-(3-((1-methyl-2,2-dioxido-1,3-dihydrobenzo[c]isothiazol-5-yl)amino)-1H-pyrazol-5-yl)cyclopentyl(3-methyltetrahydrofuran-3-yl)carbamate] | 0.158 | 0.0096
21 | CC(C)NC(=O)O[C@H]1CC[C@@H](c2cc(Nc3cc4c(cc3F)S(=O)(=O)N(C)C4)n[nH]2)C1 (relative stereo) [Example 45, cis-3-(3-((6-fluoro-2-methyl-1,1-dioxido-2,3-dihydrobenzo[d]isothiazol-5-yl)amino)-1H-pyrazol-5-yl)cyclopentyl isopropylcarbamate] | 6.01 | 0.181
22 | CC(C)NC(=O)O[C@H]1CC[C@@H](c2cc(Nc3ccc4c(c3F)CS(=O)(=O)C4)n[nH]2)C1 (relative stereo) [Example 317, cis-3-(3-((4-fluoro-2,2-dioxido-1,3-dihydrobenzo[c]thiophen-5-yl)amino)-1H-pyrazol-5-yl)cyclopentyl isopropylcarbamate] | 0.018 | –
